According to patent US9827208B2, “Antioxidant dietary supplement compositions and methods for maintaining healthy skin” (priority 2004, dated 2017):

What was measured:
[1] = Digestive tolerance of ingested high quantities of antioxidants; type: in vivo; settings: oral
[2] = Stability of gallic acid as additive in juice and food products; type: physicochemical; settings: acidity about pH 5 or lower
[3] = test system: skin conditions arising from acne and rosacea; experiment: Effect of oral antioxidant/lycopene compositions on skin conditions (acne, rosacea symptoms); type: in vivo, human; settings: oral administration, methods of treatment of the invention
[4] = cited from earlier work

Row | SMILES | digestive system problems on ingestion of relatively high quantities [1] | effectiveness in improving skin conditions / suppressing skin ailments [3] | other results
1 | O=C1O[C@H]([C@@H](O)CO)C(O)=C1O [ascorbic acid] | can result in digestive system problems |  | 
2 | O=C(O)c1cc(O)c(O)c(O)c1 [gallic acid, trihydroxy benzoic acid] | can result in digestive system problems |  | stability of gallic acid in un-oxidized form in juice/food product [2]: stable
3 | CC(C)=CCC/C(C)=C/C=C/C(C)=C/C=C/C(C)=C/C=C/C=C(C)/C=C/C=C(C)/C=C/C=C(\C)CCC=C(C)C [lycopene] |  | less effective | bioavailability of lycopene on heating and processing tomatoes into tomato paste ([4]; heating and processing into tomato paste): increases bioavailability; adsorption by humans of lycopene from dietary sources ([4]; humans, dietary sources): ≥ 2,5%; bioavailability of lycopene in presence of oil ([4]; presence of oil): increases bioavailability
4 | COC(=O)c1cc(O)c(O)c(O)c1 [methyl gallate] |  | not effective | 
5 | CCCOC(=O)c1cc(O)c(O)c(O)c1 [propyl gallate] |  | not effective | 
